Reference: patent US11311522B1 (Cavion, Inc., priority 2018, dated 2022)
Where “and” joins values, the source holds several entries; their conditions need not be identical. Equal values may be shown once.

Tests used:
[1] = test system: patients with essential tremor; test: T-CALM: TETRAS performance subscale (TETRAS-PS); settings: for >5 to 10 point worsening / >10 point worsening: TETRAS-PS
[2] = target: T1, Cav3.3 (Homo sapiens, UniProt Q9P0X4); test: Cav3.3 whole-cell voltage-clamp; format: cell-based
T1 construct: expressed in transfected cells; host or cells: HEK 293
T1 sequence (Q9P0X4 whole entry, species assumed): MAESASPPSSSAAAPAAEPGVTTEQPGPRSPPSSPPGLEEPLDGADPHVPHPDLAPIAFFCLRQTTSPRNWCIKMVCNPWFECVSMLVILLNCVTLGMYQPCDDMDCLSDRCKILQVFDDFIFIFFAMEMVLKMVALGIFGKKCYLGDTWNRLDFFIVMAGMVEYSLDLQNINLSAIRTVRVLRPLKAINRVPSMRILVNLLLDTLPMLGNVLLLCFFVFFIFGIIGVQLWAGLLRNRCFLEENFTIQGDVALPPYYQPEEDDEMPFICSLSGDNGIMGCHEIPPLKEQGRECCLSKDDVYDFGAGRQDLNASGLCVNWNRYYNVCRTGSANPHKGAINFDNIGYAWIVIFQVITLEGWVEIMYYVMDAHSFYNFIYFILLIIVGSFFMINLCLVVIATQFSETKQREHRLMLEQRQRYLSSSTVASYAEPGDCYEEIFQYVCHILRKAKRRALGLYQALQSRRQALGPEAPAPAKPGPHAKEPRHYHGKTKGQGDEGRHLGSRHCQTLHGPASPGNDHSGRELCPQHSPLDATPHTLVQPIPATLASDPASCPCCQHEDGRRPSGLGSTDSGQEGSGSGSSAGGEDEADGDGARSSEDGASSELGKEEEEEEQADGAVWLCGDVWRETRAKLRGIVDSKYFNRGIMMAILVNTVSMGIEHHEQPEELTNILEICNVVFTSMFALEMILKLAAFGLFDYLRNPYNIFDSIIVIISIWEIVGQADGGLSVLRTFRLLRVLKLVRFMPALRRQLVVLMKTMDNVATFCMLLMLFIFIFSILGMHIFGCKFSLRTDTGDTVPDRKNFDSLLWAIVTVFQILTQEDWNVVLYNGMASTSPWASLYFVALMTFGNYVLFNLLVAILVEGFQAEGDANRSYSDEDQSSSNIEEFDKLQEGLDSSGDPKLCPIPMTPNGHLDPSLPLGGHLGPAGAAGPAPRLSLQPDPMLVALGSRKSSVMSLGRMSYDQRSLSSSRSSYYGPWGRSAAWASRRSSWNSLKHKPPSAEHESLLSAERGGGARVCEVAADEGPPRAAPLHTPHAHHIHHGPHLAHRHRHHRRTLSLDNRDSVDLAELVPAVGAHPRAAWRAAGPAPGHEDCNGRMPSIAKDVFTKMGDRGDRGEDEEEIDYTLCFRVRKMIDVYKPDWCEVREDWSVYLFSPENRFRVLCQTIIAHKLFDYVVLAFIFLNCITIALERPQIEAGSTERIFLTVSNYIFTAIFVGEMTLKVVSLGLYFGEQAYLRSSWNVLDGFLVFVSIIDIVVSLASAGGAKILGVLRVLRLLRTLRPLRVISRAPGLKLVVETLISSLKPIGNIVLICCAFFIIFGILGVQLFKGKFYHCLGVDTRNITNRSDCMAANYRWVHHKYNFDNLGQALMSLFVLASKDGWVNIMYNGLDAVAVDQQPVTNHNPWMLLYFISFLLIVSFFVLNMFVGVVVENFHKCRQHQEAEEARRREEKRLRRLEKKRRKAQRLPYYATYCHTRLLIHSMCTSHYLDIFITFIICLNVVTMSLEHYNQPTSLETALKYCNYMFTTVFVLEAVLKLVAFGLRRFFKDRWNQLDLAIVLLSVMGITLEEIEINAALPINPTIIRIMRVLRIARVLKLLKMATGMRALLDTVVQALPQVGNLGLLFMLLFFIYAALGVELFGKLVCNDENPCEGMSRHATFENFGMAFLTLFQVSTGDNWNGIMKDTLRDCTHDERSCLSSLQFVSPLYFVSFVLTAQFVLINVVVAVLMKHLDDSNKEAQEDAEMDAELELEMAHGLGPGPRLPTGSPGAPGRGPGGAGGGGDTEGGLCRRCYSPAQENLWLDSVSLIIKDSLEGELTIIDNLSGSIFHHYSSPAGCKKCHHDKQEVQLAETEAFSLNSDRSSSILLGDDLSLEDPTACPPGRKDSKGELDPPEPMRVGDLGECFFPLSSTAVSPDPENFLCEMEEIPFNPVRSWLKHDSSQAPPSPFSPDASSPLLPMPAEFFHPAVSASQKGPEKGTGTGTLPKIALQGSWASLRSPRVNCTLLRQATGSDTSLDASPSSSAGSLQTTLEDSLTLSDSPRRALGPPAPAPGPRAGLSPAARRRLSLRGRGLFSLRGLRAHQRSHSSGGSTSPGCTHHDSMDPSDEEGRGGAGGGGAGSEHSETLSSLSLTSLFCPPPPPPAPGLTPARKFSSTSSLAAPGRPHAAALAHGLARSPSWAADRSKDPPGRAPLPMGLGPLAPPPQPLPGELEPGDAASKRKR

[3] = Day 28, independent video raters
[4] = Independent Video Raters, subgroup Baseline TETRAS-PS Severity <=Median, N=22
[5] = Independent Video Raters, subgroup Baseline TETRAS-PS Severity > Median, N=16
[6] = Independent Video Raters, subgroup No Beta-blocker Use at Day 1, N=20
[7] = Independent Video Raters, subgroup No Concurrent Tremor Medication at Day 1, N=14
[8] = Independent Video Raters, subgroup Using Beta-blocker at Day 1, N=18
[9] = Independent Video Raters, subgroup Using Concurrent Tremor Medication at Day 1, N=24
[10] = Investigator Rated, subgroup Baseline TETRAS-PS Severity <=Median, N=22
[11] = Investigator Rated, subgroup Baseline TETRAS-PS Severity > Median, N=15
[12] = Investigator Rated, subgroup No Beta-blocker Use at Day 1, N=19
[13] = Investigator Rated, subgroup No Concurrent Tremor Medication at Day 1, N=14
[14] = Investigator Rated, subgroup Using Beta-blocker at Day 1, N=18
[15] = Investigator Rated, subgroup Using Concurrent Tremor Medication at Day 1, N=23

## CC(C)c1ccc(CC(=O)N[C@H](C)c2ccc(OCC(F)(F)F)cn2)cc1 [CX-8998]
[1]; Day 15 (8 mg BID)
  Change from baseline in TETRAS-PS rated by physician, LS mean: −3.1
[1]; Day 28 (10 mg BID)
  Change from baseline in TETRAS-PS rated by physician, LS mean: −4.6
[1]; [3]
  TETRAS-PS LS mean difference from placebo (95% CI): 0.5 (−1.5, 2.5)
  TETRAS-PS total score, Mean (SD): 21.1 (6.71)
  TETRAS-PS total score, Median: 20.0
[1]; Day 28, investigator rated
  TETRAS-PS LS mean difference from placebo (95% CI): −2.0 (−4.0, 0.0)
  TETRAS-PS total score, Median: 22.5
[1]; Independent Video Raters, subgroup Baseline TETRAS-PS Severity <=Median
  TETRAS-PS Total Score change from baseline to Day 28, LS mean difference from placebo (95% CI): 1.2 (−1.1, 3.4)
[1]; [4]
  TETRAS-PS Total Score change from baseline to Day 28, LS mean (SE): −0.6 (0.82)
  TETRAS-PS Total Score change from baseline to Day 28, Median (minimum, maximum): 0 (−9.5, 7.0)
[1]; Independent Video Raters, subgroup Baseline TETRAS-PS Severity <=Median, N=22, titrated up to 10 mg BID
  TETRAS-PS Total Score change from baseline to Day 28, Mean (SD): −0.1 (3.98)
[1]; Independent Video Raters, subgroup Baseline TETRAS-PS Severity > Median
  TETRAS-PS Total Score change from baseline to Day 28, LS mean difference from placebo (95% CI): −1.3 (−4.8, 2.3)
[1]; [5]
  TETRAS-PS Total Score change from baseline to Day 28, LS mean (SE): −3.5 (1.47)
  TETRAS-PS Total Score change from baseline to Day 28, Mean (SD): −3.6 (4.14)
  TETRAS-PS Total Score change from baseline to Day 28, Median (minimum, maximum): −3.0 (−11, 2.5)
[1]; Independent Video Raters, subgroup No Beta-blocker Use at Day 1
  TETRAS-PS Total Score change from baseline to Day 28, LS mean difference from placebo (95% CI): −1.2 (−4.3, 1.8)
[1]; [6]
  TETRAS-PS Total Score change from baseline to Day 28, LS mean (SE): −1.3 (1.10)
  TETRAS-PS Total Score change from baseline to Day 28, Mean (SD): −1.6 (4.99)
  TETRAS-PS Total Score change from baseline to Day 28, Median (minimum, maximum): −2.0 (−11, 7.0)
[1]; Independent Video Raters, subgroup No Concurrent Tremor Medication at Day 1
  TETRAS-PS Total Score change from baseline to Day 28, LS mean difference from placebo (95% CI): −2.0 (−5.8, 1.8)
[1]; [7]
  TETRAS-PS Total Score change from baseline to Day 28, LS mean (SE): −4.3 (2.05)
  TETRAS-PS Total Score change from baseline to Day 28, Median (minimum, maximum): −3.3 (−11, 7.0)
[1]; Independent Video Raters, subgroup Using Beta-blocker at Day 1
  TETRAS-PS Total Score change from baseline to Day 28, LS mean difference from placebo (95% CI): 1.4 (−1.4, 4.3)
[1]; [8]
  TETRAS-PS Total Score change from baseline to Day 28, LS mean (SE): −2.5 (1.36)
  TETRAS-PS Total Score change from baseline to Day 28, Mean (SD): −1.5 (3.68)
  TETRAS-PS Total Score change from baseline to Day 28, Median (minimum, maximum): −1.3 (−9.5, 4.0)
[1]; Independent Video Raters, subgroup Using Concurrent Tremor Medication at Day 1
  TETRAS-PS Total Score change from baseline to Day 28, LS mean difference from placebo (95% CI): 1.8 (−0.7, 4.3)
[1]; [9]
  TETRAS-PS Total Score change from baseline to Day 28, LS mean (SE): −1.6 (1.14)
  TETRAS-PS Total Score change from baseline to Day 28, Mean (SD): −1.1 (3.71)
  TETRAS-PS Total Score change from baseline to Day 28, Median (minimum, maximum): −1.3 (−9.5, 5.5)
[1]; Investigator Rated, subgroup Baseline TETRAS-PS Severity <=Median
  TETRAS-PS Total Score change from baseline to Day 28, LS mean difference from placebo (95% CI): −1.2 (−3.1, 0.6)
[1]; [10]
  TETRAS-PS Total Score change from baseline to Day 28, LS mean (SE): −3.8 (0.67)
  TETRAS-PS Total Score change from baseline to Day 28, Mean (SD): −3.4 (3.74)
  TETRAS-PS Total Score change from baseline to Day 28, Median (minimum, maximum): −3.0 (−13.5, 1.0)
[1]; Investigator Rated, subgroup Baseline TETRAS-PS Severity > Median
  TETRAS-PS Total Score change from baseline to Day 28, LS mean difference from placebo (95% CI): −3.5 (−7.4, 0.4)
[1]; [11]
  TETRAS-PS Total Score change from baseline to Day 28, LS mean (SE): −5.6 (1.60)
  TETRAS-PS Total Score change from baseline to Day 28, Mean (SD): −5.8 (4.48)
  TETRAS-PS Total Score change from baseline to Day 28, Median (minimum, maximum): −6.0 (−13, 4.5)
[1]; Investigator Rated, subgroup No Beta-blocker Use at Day 1
  TETRAS-PS Total Score change from baseline to Day 28, LS mean difference from placebo (95% CI): −4.3 (−7.0, −1.7)
[1]; [12]
  TETRAS-PS Total Score change from baseline to Day 28, LS mean (SE): −5.6 (0.97)
  TETRAS-PS Total Score change from baseline to Day 28, Mean (SD): −4.5 (3.89)
  TETRAS-PS Total Score change from baseline to Day 28, Median (minimum, maximum): −4.0 (−12.4, 1.0)
[1]; Investigator Rated, subgroup No Concurrent Tremor Medication at Day 1
  TETRAS-PS Total Score change from baseline to Day 28, LS mean difference from placebo (95% CI): −4.4 (−7.4, −1.3)
[1]; [13]
  TETRAS-PS Total Score change from baseline to Day 28, LS mean (SE): −6.2 (1.60)
  TETRAS-PS Total Score change from baseline to Day 28, Mean (SD): −5.0 (3.97)
  TETRAS-PS Total Score change from baseline to Day 28, Median (minimum, maximum): −4.5 (−12.5, 1.0)
[1]; Investigator Rated, subgroup Using Beta-blocker at Day 1
  TETRAS-PS Total Score change from baseline to Day 28, LS mean difference from placebo (95% CI): −0.3 (−3.6, 3.0)
[1]; [14]
  TETRAS-PS Total Score change from baseline to Day 28, LS mean (SE): −3.6 (1.56)
  TETRAS-PS Total Score change from baseline to Day 28, Mean (SD): −4.2 (4.55)
  TETRAS-PS Total Score change from baseline to Day 28, Median (minimum, maximum): −4.0 (−13.5, 4.5)
[1]; Investigator Rated, subgroup Using Concurrent Tremor Medication at Day 1
  TETRAS-PS Total Score change from baseline to Day 28, LS mean difference from placebo (95% CI): −0.5 (−3.2, 2.3)
[1]; [15]
  TETRAS-PS Total Score change from baseline to Day 28, LS mean (SE): −3.5 (1.29)
  TETRAS-PS Total Score change from baseline to Day 28, Mean (SD): −3.9 (4.31)
  TETRAS-PS Total Score change from baseline to Day 28, Median (minimum, maximum): −3.5 (−13.5, 4.5)
[1]; Day 15
  >5 to 10 point worsening: 0 n (%)
  >10 point worsening: 0 n (%)
[1]; Day 28
  >5 to 10 point worsening: 0 n (%)
  >10 point worsening: 0 n (%)
[1]; independent video raters
  TETRAS-PS change from baseline to Day 28, Mean (SD): −1.6 (4.36)
  TETRAS-PS change from baseline to Day 28, Median: −1.5
[1]; investigator rated
  TETRAS-PS change from baseline to Day 28, Mean (SD): −4.4 (4.16)
  TETRAS-PS change from baseline to Day 28, Median: −4.0
[2]; Vh −80 mV
  IC50: ~0.084 µM and 0.084 µM
[2]; Vh=−100 mV
  IC50: ~2.4 µM and 2.4 µM
